Reference: patent publication US20070208062A1, “3-(4-(2-DIHYDROISOXAZOL-3-YLPYRIDIN-5-YL)PHENYL)-5-TRIAZOL-1-YLMETHYLOXAZOLIDIN-2-ONE DERIVATIVES AS MAO INHIBITORS FOR THE TREATMENT OF BACTERIAL INFECTIONS” (ASTRAZENECA AB, priority 2004, published 2007)
Converted amounts (≈) assume the structure as drawn. Structures can show the parent of a compound that is named as a salt.

What was measured:
[1] = tested on: Linezolid Resistant Streptococcus pneumoniae; assay: MIC, Linezolid Resistant Streptococcus pneumoniae; assay type: cell-based; settings: agar with 5% defibrinated horse blood, 5% carbon dioxide, 48 hours
Description: (§1) The following results were obtained on a standard in-vitro test system. The activity is described in terms of the minimum inhibitory concentration (MIC) determined by the agar-dilution technique with an inoculum size of 10^4 CFU/spot. Typically, compounds are active in the range 0.01 to 256 μg/ml.
(§2) Streptococci and enterococci were tested on agar supplemented with 5% defibrinated horse blood, an inoculum of 10^4 CFU/spot and an incubation temperature of 37° C. in an atmosphere of 5% carbon dioxide for 48 hours—blood is required for the growth of some of the test organisms. Fastidious Gram negative organisms were tested in Mueller-Hinton broth, supplemented with hemin and NAD, grown aerobically for 24 hours at 37° C., and with an inoculum of 5×10^4 CFU/well.

[2] = tested on: Staphylococcus aureus MSQS (methicillin sensitive and quinolone sensitive); assay: MIC by agar-dilution, Staphylococcus aureus MSQS; assay type: cell-based; settings: inoculum 10^4 CFU/spot, 37° C., 24 hours
Description: as §1
(§3) Staphylococci were tested on agar, using an inoculum of 10^4 CFU/spot and an incubation temperature of 37° C. for 24 hours—standard test conditions for the expression of methicillin resistance.

Streptococcus pneumoniae = assay: MIC, Streptococcus pneumoniae; assay type: cell-based; settings: agar with 5% defibrinated horse blood, 5% carbon dioxide, 48 hours
Description: as §1, §2

Moraxella catarrhalis = assay: MIC, Moraxella catarrhalis; assay type: cell-based; settings: Mueller-Hinton broth with hemin and NAD, 24 hours, 5×10^4 CFU/well
Description: as §1, §2

MAO-A = molecular target: T1, MAO-A (Homo sapiens, UniProt P21397); assay: MAO-A standard in-vitro assay, human liver enzyme expressed in yeast; assay type: biochemical; settings: read-out: Ki against MAO-A
T1 construct: made in house; host or cells: yeast
T1 sequence (P21397 1-527): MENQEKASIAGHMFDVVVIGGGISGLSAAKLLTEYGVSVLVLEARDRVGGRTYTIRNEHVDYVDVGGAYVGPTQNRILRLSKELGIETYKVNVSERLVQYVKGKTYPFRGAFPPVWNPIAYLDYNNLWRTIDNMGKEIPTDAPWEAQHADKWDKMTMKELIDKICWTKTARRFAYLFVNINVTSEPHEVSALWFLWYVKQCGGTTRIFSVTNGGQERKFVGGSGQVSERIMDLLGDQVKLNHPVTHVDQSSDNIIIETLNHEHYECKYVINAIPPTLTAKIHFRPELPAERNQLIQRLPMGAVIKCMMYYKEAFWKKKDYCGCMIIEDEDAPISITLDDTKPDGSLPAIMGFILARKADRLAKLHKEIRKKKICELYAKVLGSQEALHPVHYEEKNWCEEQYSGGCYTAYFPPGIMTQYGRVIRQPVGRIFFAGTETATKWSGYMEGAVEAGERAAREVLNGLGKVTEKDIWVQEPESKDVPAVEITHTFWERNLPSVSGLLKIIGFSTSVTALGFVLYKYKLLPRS
Description: The activity of the compounds of the invention against MAO-A was tested using a standard in-vitro assay based on human liver enzyme expressed in yeast as described in Biochem. Biophys. Res. Commun. 1991, 181, 1084-1088.

Haemophilus influenzae = assay: MIC, Haemophilus influenzae; assay type: cell-based; settings: Mueller-Hinton broth with hemin and NAD, 24 hours, 5×10^4 CFU/well
Description: as §1, §2

[3] = tested on: Staphylococcus aureus MRQR (methicillin resistant and quinolone resistant); assay: MIC by agar-dilution, Staphylococcus aureus MRQR; assay type: cell-based; settings: inoculum 10^4 CFU/spot, 37° C., 24 hours
Description: as §1, §3

[4] = tested on: Staphylococci, Streptococci, enterococci, fastidious Gram negative organisms; assay: standard in-vitro test system, antibacterial activity (MIC); assay type: cell-based; settings: result in words
Source text: The pharmaceutically-acceptable compounds of the present invention are useful antibacterial agents having a good spectrum of activity in vitro against standard Gram-positive organisms, which are used to screen for activity against pathogenic bacteria. […] The antibacterial spectrum and potency of a particular compound may be determined in a standard test system.
as §1, §3, §2

| SMILES | melting point [°C] | other results |
| --- | --- | --- |
| CC[C@H](C)[C@H](N)C(=O)OCCOC[C@@H]1CC(c2ccc(-c3ccc(N4C[C@H](Cn5ccnn5)OC4=O)cc3F)cn2)=NO1 (as salt: HCl) [Example 17, 2-{[(5S)-3-(5-{2-Fluoro-4-[(5R)-2-oxo-5-(1H-1,2,3-triazol-1-ylmethyl)-1,3-oxazolidin-3-yl]phenyl}pyridin-2-yl)-4,5-dihydroisoxazole-5-yl]methoxy}ethyl L-isoleucinate] | 119 |  |
| CN(C)CC(O)COC[C@@H]1CC(c2ccc(-c3ccc(N4C[C@H](Cn5ccnn5)OC4=O)cc3F)cn2)=NO1 (some centres unmarked) (as salt: hydrochloride) [Example 19] | 110 to 115 |  |
| O=C1OC(Cn2ccnn2)CN1c1ccc(-c2ccc(C3=NO[C@H](COCCN4CCOCC4)C3)nc2)c(F)c1 (stereo in doubt) [Example 10, (5S)-3-[3-Fluoro-4-(6-{(5S)-5-[(2-morpholin-4-ylethoxy)methyl]-4,5-dihydroisoxazole-3-yl}pyridin-3-yl)phenyl]-5-(1H-1,2,3-triazol-1-ylmethyl)-1,3-oxazolidin-2-one] | 171 |  |
| O=C(O)COC[C@@H]1CC(c2ccc(-c3ccc(N4C[C@H](Cn5ccnn5)OC4=O)cc3F)cn2)=NO1 [Example 3, {[(5S)-3-(5-{2-Fluoro-4-[(5R)-2-oxo-5-(1H-1,2,3-triazol-1-ylmethyl)-1,3-oxazolidin-3-yl]phenyl}pyridin-2-yl)-4,5-dihydroisoxazole-5-yl]methoxy}acetic acid] | 190 |  |
| CNC(=O)COC[C@@H]1CC(c2ccc(-c3ccc(N4C[C@H](Cn5ccnn5)OC4=O)cc3F)cn2)=NO1 [Example 4, 2-{[(5S)-3-(5-{2-Fluoro-4-[(5R)-2-oxo-5-(1H-1,2,3-triazol-1-ylmethyl)-1,3-oxazolidin-3-yl]phenyl}pyridin-2-yl)-4,5-dihydroisoxazole-5-yl]methoxy}-N-methylacetamide] | 153 to 156 | MIC [1]: 1 mg/L (≈ 1.96 µM); MIC [2]: 0.25 mg/L (≈ 0.491 µM); MIC (Streptococcus pneumoniae): 0.06 mg/L (≈ 0.118 µM); MIC (Moraxella catarrhalis): 0.5 mg/L (≈ 0.981 µM); Ki (MAO-A): 8 µM; MIC (Haemophilus influenzae): 8 mg/L (≈ 15.7 µM); MIC [3]: 0.5 mg/L (≈ 0.981 µM) |
| CN(C)C(=O)COC[C@@H]1CC(c2ccc(-c3ccc(N4C[C@H](Cn5ccnn5)OC4=O)cc3F)cn2)=NO1 [Example 5, 2-{[(5S)-3-(5-{2-Fluoro-4-[(5R)-2-oxo-5-(1H-1,2,3-triazol-1-ylmethyl)-1,3-oxazolidin-3-yl]phenyl}pyridin-2-yl)-4,5-dihydroisoxazole-5-yl]methoxy}-N,N-dimethylacetamide] | 166 to 168 |  |
| CN1CCN(C(=O)COC[C@@H]2CC(c3ccc(-c4ccc(N5C[C@H](Cn6ccnn6)OC5=O)cc4F)cn3)=NO2)CC1 [Example 6, (5R)-3-{3-Fluoro-4-[6-((5S)-5-{[2-(4-methylpiperazin-1-yl)-2-oxoethoxy]methyl}-4,5-dihydroisoxazole-3-yl)pyridin-3-yl]phenyl}-5-(1H-1,23-triazol-1-ylmethyl)-1,3-oxazolidin-2-one] | 165 to 175 |  |
| O=C1O[C@@H](Cn2ccnn2)CN1c1ccc(-c2ccc(C3=NO[C@H](COCCCO)C3)nc2)c(F)c1 [Example 7, (5R)-3-[3-Fluoro-4-(6-{(5S)-5-[(3-hydroxypropoxy)methyl]-4,5-dihydroisoxazole-3-yl}pyridin-3-yl)phenyl]-5-(1H-1,23-triazol-1-ylmethyl)-1,3-oxazolidin-2-one] | 176 |  |
| O=C1O[C@@H](Cn2ccnn2)CN1c1ccc(-c2ccc(C3=NO[C@H](COCCO)C3)nc2)c(F)c1 [Example 8] | 162 |  |
| CS(=O)(=O)NCCOC[C@@H]1CC(c2ccc(-c3ccc(N4C[C@H](Cn5ccnn5)OC4=O)cc3F)cn2)=NO1 [Example 13, N-(2-{[(5S)-3-(5-{2-Fluoro-4-[(5R)-2-oxo-5-(1H-1,2,3-triazol-1-ylmethyl)-1,3-oxazolidin-3-yl]phenyl}pyridin-2-yl)-4,5-dihydroisoxazole-5-yl]methoxy}ethyl)methanesulfonamide] | 170 |  |
| CC(=O)NCCOC[C@@H]1CC(c2ccc(-c3ccc(N4C[C@H](Cn5ccnn5)OC4=O)cc3F)cn2)=NO1 [Example 14, N-(2-{[(5S)-3-(5-{2-Fluoro-4-[(5R)-2-oxo-5-(1H-1,2,3-triazol-1-ylmethyl)-1,3-oxazolidin-3-yl]phenyl}pyridin-2-yl)-4,5-dihydroisoxazole-5-yl]methoxy}ethyl)acetamide] | 134 |  |
| N#CCOC[C@@H]1CC(c2ccc(-c3ccc(N4C[C@H](Cn5ccnn5)OC4=O)cc3F)cn2)=NO1 [Example 15, {[(5S)-3-(5-{2-Fluoro-4-[(5R)-2-oxo-5-(1H-1,2,3-triazol-1-ylmethyl)-1,3-oxazolidin-3-yl]phenyl}pyridin-2-yl)-4,5-dihydroisoxazole-5-yl]methoxy}acetonitrile] | 90 to 115 |  |
| CC(C)(O)COC[C@@H]1CC(c2ccc(-c3ccc(N4C[C@H](Cn5ccnn5)OC4=O)cc3F)cn2)=NO1 [Example 16] | 180 to 187 |  |
| CN(CCOC[C@@H]1CC(c2ccc(-c3ccc(N4C[C@H](Cn5ccnn5)OC4=O)cc3F)cn2)=NO1)CC(=O)O [Example 20, N-(2-{[(5S)-3-(5-{2-Fluoro-4-[(5R)-2-oxo-5-(1H-1,2,3-triazol-1-ylmethyl)-1,3-oxazolidin-3-yl]phenyl}pyridin-2-yl)-4,5-dihydroisoxazole-5-yl]methoxy}ethyl)-N-methylglycine] | 135 to 140 |  |
| CC(C)(C)OC(=O)COC[C@@H]1CC(c2ccc(-c3ccc(N4C[C@H](Cn5ccnn5)OC4=O)cc3F)cn2)=NO1 [Pro-drug Example 1, tert-Butyl {[(5S)-3-(5-{2-fluoro-4-[(5R)-2-oxo-5-(1H-1,2,3-triazol-1-ylmethyl)-1,3-oxazolidin-3-yl]phenyl}pyridin-2-yl)-4,5-dihydroisoxazole-5-yl]methoxy}acetate] | 186 |  |
| C=CCOC[C@@H]1CC(c2ccc(-c3ccc(N4C[C@H](Cn5ccnn5)OC4=O)cc3F)cn2)=NO1 [compound 2, (5R)-3-[4-(6-{(5S)-5-[(Allyloxy)methyl]-4,5-dihydroisoxazole-3-yl}pyridin-3-yl)-3-fluorophenyl]-5-(1H-1,2,3-triazol-1-ylmethyl)-1,3-oxazolidin-2-one] | 162 | antibacterial activity [4]: have antibacterial activity |
| [N-]=[N+]=NCCOC[C@@H]1CC(c2ccc(-c3ccc(N4C[C@H](Cn5ccnn5)OC4=O)cc3F)cn2)=NO1 [compound 9] | 148 | antibacterial activity [4]: have antibacterial activity |
